Results on six molecules are retold here after patent US20110038920A1, “WOUND HEALING COMPOSITIONS AND TREATMENTS” (priority 2008, published 2011).

Counter-ions that a name gives are not always drawn.

In data set [1] the test system is OPN expression in Swiss 3T3 fibroblasts. Nature of the data set: Induction of OPN expression in fibroblasts by growth factors/cytokines (Western blot). It counts as cell-based. The following applies: for ability to upregulate OPN expression in Swiss 3T3s: 8 h, PDGF-BB 20, EGF 100, TGFβ1 10, TGFβ3 10, IL-6 50, TNFα 10 ng/ml. Here is the method:
(§1) Protein samples (20 μg; collected in T-PER® Reagent; PIERCE Biotechnology) were separated on Tris-Glycine Gels (Invitrogen), transferred to PVDF, and blotted according to standard protocols (antibody details are provided above).
(§2) Swiss 3T3, J774.1 macrophages, and RBL mast cells were cultured in DMEM+10% fetal calf serum. Primary neutrophils were harvested by peritoneal lavage 4 h post-thioglycollate-induced peritonitis, and primary macrophages were derived from mouse bone marrow and activated with LPS (500 ng/ml).
Background: A western blot detects proteins with antibodies after separation by electrophoresis.

A further data set has as its system Mouse OPN mRNA. Put plainly: AS ODN cleavage of OPN mRNA in vitro (RNase H). The following applies: ODN final concentration 2 μM, 20 min at 37° C., compared among the AS ODNs. In kind it is biochemical. The protocol:
Dz cleavage of OPN mRNA in vitro: Mouse OPN mRNA was transcribed from the IMAGE clone (GenBank, BC057858; (Geneservice Ltd), and resulting RNA was purified with RNeasy MinElute Cleanup Kit (Qiagen). RNA (0.3 μg/5 μl) was incubated in the cleavage buffer (10 mM MgCl2, 5 mM Tris (pH 7.5), 150 mM NaCl) for 5 min at 37° C., as was 5 μl of Dzs (40 μM; MWG Biotech). These were then combined and incubated for 1 h. RNA products were separated on 2% formaldehyde-agarose gel and stained with SYBR Gold nucleic acid gel stain (Invitrogen) to determine cleaving efficiency (FIG. 6 A).
AS ODN cleavage in vitro: To evaluate the cleaving efficiency of the AS ODNs, transcribed RNA (0.3 μg) was incubated with control or OPN AS ODNs (final concentration of 2 μM; MWG Biotech), RNase H (Invitrogen. Corp.), and RNasin (to inhibit non-specific RNA degradation; Promega) in a final volume 10 μl of cleavage buffer, and incubated for 20 min at 37° C. RNA products were separated on 2% formaldehyde-agarose gel and stained with SYBR Gold nucleic acid gel stain (Invitrogen Corp.) to determine cleaving efficiency (FIG. 6 B).

Data set [2] has as its system pulmonary and dermal fibrosis. The following applies: Distler et al. 2007; Aono et al. 2005; cited from earlier work.
Data set [3] relates to OPN expression in Swiss 3T3 fibroblasts exposed to macrophage CM. Put plainly: Macrophage-CM induction of OPN in fibroblasts with inhibitors (Western blot). The following applies: co-treatment; Gleevec 2-20 μM, PDGF-Rβ nAb 2 μg/ml, wortmannin 100 nM. In kind it is cell-based. The protocol: as §1, §2
The test system of the next data set is chronic ulcers. The following applies: cited from earlier work.

With “EGF: growth factor, R&D Systems (NSDSECPLSHDGYCLHDGVCMYIEALDKYACNCVVGYIGERCQYRDLKWWELR; Epidermal growth factor; UniProt P01133 971-1023, looked up)”, in data set [1], the “ability to upregulate OPN expression in Swiss 3T3s” value (“ability” below) is listed as “not”.
Regarding “OPN AS ODN (943): osteopontin antisense oligodeoxynucleotide actatcgatcacatccg (SEQ.ID.NO: 164) (antisense ACTATCGATCACATCCG; DNA, backbone not given here)”, the “effectiveness at cleaving OPN mRNA” value with Mouse OPN mRNA was “most effective”.
IL-6: cytokine, BioSource: the “ability” value in data set [1] is “not”.
For `Cc1ccc(NC(=O)c2ccc(CN3CCN(C)CC3)cc2)cc1Nc1nccc(-c2cccnc2)n1` [Gleevec, imatinib mesylate], the “pulmonary and dermal fibrosis” value in data set [2] was “reduces pulmonary and dermal fibrosis”. In data set [3], the “OPN expression during fibroblast exposure to macrophage CM” value is on record as “significantly reduced”.
Take “TGFβ1: growth factor/cytokine, BioVision”: the “ability” value in data set [1] was “not”.
Turning to PDGF-BB: growth factor, R&D Systems, the “ability” value in data set [1] is given as “significantly upregulate”. Besides, the “time of peak OPN levels after initial exposure” value in data set [1] (Swiss 3T3 fibroblasts, 20 ng/ml PDGF-BB) is listed as “about 8 h”. In data set [1] (Swiss 3T3 fibroblasts, 20 ng/ml PDGF-BB, analysed at 8 h), the “minimum window of exposure required for OPN expression” value is reported as not below 2 h. The “granulation tissue and scarring” value with chronic ulcers (in vivo) was “increased granulation tissue and scarring”. The “healing of chronic ulcers” value in the data set with chronic ulcers (topical application to wounds (Chan et al. 2006)) is “accelerate the healing”.
